# Assay results as given in US20030186869A1, “Polymer compositions comprising antifibrotic agents, and methods of treatment, pharmaceutical compositions, and methods of preparation therefor” (priority 1990, published 2003).
# Legend:
# [1] = test system: Sprague-Dawley rats housed under hypoxic conditions (10% O2); test: Hypoxic rat model of pulmonary hypertension, CHOP-PEG; assay type: in vivo
# Procedure: The anti-pulmonary hypertensive activity of the polymer compositions was tested in the hypoxic rat model (as described in detail above). […] PH is manifested histologically by vascular remodeling (collagen accumulation and fibroblastic hypertrophy), increased right ventricular work-load, thickening of the pulmonary artery, and hypertrophy of the right ventricular cardiac wall. […] Drug treatment can take place during the acute induction phase (days 0-7) or following the establishment of experimental PH (day 7 or later). Intravenous (i.v.), subcutaneous (s.c.), intra-tracheal instillation, and osmotic minipump delivery have been tested. Experiments are scored by obtaining the mean RVP measurement. Results are expressed as either RVP in mm Hg, or preferably as the reduction in the RVP by the formula: […] On day 7 the RVP was measured and compared to animals maintained in normoxic conditions (10.4 mm Hg) and to untreated animals kept in hypoxic conditions (19.3 mm Hg).
# [2] = test system: RFL-6 cells; test: IC50 experiment, cytotoxicity / growth inhibition of RFL-6 rat fibroblast cells; assay type: cell-based
# Procedure: In this test two different synthesis batches of cis-hydroxyproline (CHOP) linked to PEG were tested, along with free CHOP. […] The differences between the two batches of CHOP-PEG are not significant.
# [3] = test system: Sprague-Dawley rats housed under hypoxic conditions (10% O2); test: Hypoxic rat model of pulmonary hypertension, CHOP-PEG; assay type: in vivo; settings: 10 mg in 7-day minipump
substance,measurement,setting,value
poly(PEG-Lys-cHyp amide) [CHOP-PEG],reduction of RVP at minimum maximally effective dose,"[1]; 0.8 mg total dose per animal, acute PH",> 70%
same,reduction of RVP,"[1]; 10 mg in 7-day minipump, day 7",74%
same,reduction of RVP,"[1]; 7-day miniosmotic pump, both drug treated groups (1 or 4 mg, FIG. 18)",76%
same,reduction of RVP,"[1]; 7-day minipump, 1.0 mg",more than 50%
same,reduction of RVP,[1]; intratracheal instillation 90 mg on days 0 and 2,51%
same,RVP,"[1]; intratracheal instillation 90 mg on days 0 and 2, reduced from 20",15 mm Hg
same,effect on RVP in rats under normoxic conditions,"[1]; normoxic, intratracheal instillation, similar treatment",no effect
same,reduction of RVP,"[1]; single i.v. dose 0.8 mg on day 0, RVP on day 7",~50%
same,reduction of RVP,"[1]; subcutaneous route, 7 day hypoxic rat model",minimal reduction of RVP
same,minimum dose that reduces RVP maximally in acute PH,[1]; total dose per animal,0.8 mg
same,IC50,"[2]; PEG construct, mean ± SD (n), read-out: IC50, AA-Lys-PEG",5.6 ± 1.5 mM
same,"inhibition of rat fibroblast growth, polymeric constructs versus free amino acid","[2]; two synthesis batches (1 and 2), FIG. 15",to a similar extent
same,reduction of RVP,[3]; day 10,56%
same,reduction of RVP,[3]; day 14,45%
